Test results as given in the supplement of paper PMC13207355.

Legend:
Details in all cases: exposure time: 72 h
E13 [1] = patient-derived glioblastoma stem cells of classical subtype; experiment: phenotypic distance (Euclidean, principal components) from DMSO controls (arbitrary units); higher = stronger morphological change
E28 [2] = patient-derived glioblastoma stem cells of classical subtype; experiment: as above
FT3469 [3] = normal neural stem cell line; experiment: as above
E57 [4] = patient-derived glioblastoma stem cells of mesenchymal subtype; experiment: as above
E31 [5] = patient-derived glioblastoma stem cells of proneural subtype; experiment: as above
E21 [6] = patient-derived glioblastoma stem cells of mesenchymal subtype; experiment: as above
E34 [7] = patient-derived glioblastoma stem cells of proneural subtype; experiment: as above
E13 [8] = experiment: surviving fraction (nuclei count normalised to DMSO); higher = more cells surviving (less toxic)
E28 [9] = experiment: as above
FT3469 [10] = experiment: as above
E57 [11] = experiment: as above
E31 [12] = experiment: as above
E21 [13] = experiment: as above
E34 [14] = experiment: as above
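Wherever phenotypic distance (Euclidean, principal components) from DMSO controls is given: cell Painting imaging in 384-well plates, CellProfiler features reduced to at least 20 principal components, Euclidean distance versus same-plate DMSO vehicle wells (0.1% v/v), median over six images per well.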
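Wherever surviving fraction (nuclei count normalised to DMSO) is given: nuclei counted by high-content imaging of Hoechst-stained cells in laminin-coated 384-well plates, relative to 0.1% DMSO vehicle wells, with staurosporine as cell-death control.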

Oc1c(Cl)cc(Cl)c(Cl)c1Cc1c(O)c(Cl)cc(Cl)c1Cl [Hexachlorophene]
Details | phenotypic distance | surviving fraction
E13 [1], 4.1 nM | 0.81 | –
E13 [1], 12.3 nM | 0.795 | –
E13 [1], 37 nM | 3 | –
E13 [1], 111.1 nM | 0.903 | –
E13 [1], 333.3 nM | 3.34 | –
E13 [1], 1000 nM | 1.8 | –
E13 [1], 3000 nM | 3.77 | –
E13 [8], 4.1 nM | – | 0.829
E13 [8], 12.3 nM | – | 0.908
E13 [8], 37 nM | – | 0.957
E13 [8], 111.1 nM | – | 0.796
E13 [8], 333.3 nM | – | 0.826
E13 [8], 1000 nM | – | 0.68
E13 [8], 3000 nM | – | 0.367
E21 [6], 4.1 nM | 1 | –
E21 [6], 12.3 nM | 0.629 | –
E21 [6], 37 nM | 1.26 | –
E21 [6], 111.1 nM | 0.988 | –
E21 [6], 333.3 nM | 1.51 | –
E21 [6], 1000 nM | 2.2 | –
E21 [6], 3000 nM | 4.77 | –
E21 [13], 4.1 nM | – | 0.928
E21 [13], 12.3 nM | – | 0.925
E21 [13], 37 nM | – | 0.965
E21 [13], 111.1 nM | – | 0.903
E21 [13], 333.3 nM | – | 0.964
E21 [13], 1000 nM | – | 0.762
E21 [13], 3000 nM | – | 0.552
E28 [2], 4.1 nM | 1.12 | –
E28 [2], 12.3 nM | 0.421 | –
E28 [2], 37 nM | 0.961 | –
E28 [2], 111.1 nM | 0.709 | –
E28 [2], 333.3 nM | 0.784 | –
E28 [2], 1000 nM | 1.11 | –
E28 [2], 3000 nM | 1.45 | –
E28 [9], 4.1 nM | – | 0.954
E28 [9], 12.3 nM | – | 1.03
E28 [9], 37 nM | – | 1.04
E28 [9], 111.1 nM | – | 0.884
E28 [9], 333.3 nM | – | 1.04
E28 [9], 1000 nM | – | 0.839
E28 [9], 3000 nM | – | 0.748
E31 [5], 4.1 nM | 0.745 | –
E31 [5], 12.3 nM | 0.7 | –
E31 [5], 37 nM | 0.853 | –
E31 [5], 111.1 nM | 0.867 | –
E31 [5], 333.3 nM | 1.39 | –
E31 [5], 1000 nM | 1.83 | –
E31 [5], 3000 nM | 3.79 | –
E31 [12], 4.1 nM | – | 0.956
E31 [12], 12.3 nM | – | 0.937
E31 [12], 37 nM | – | 1.03
E31 [12], 111.1 nM | – | 0.964
E31 [12], 333.3 nM | – | 1.03
E31 [12], 1000 nM | – | 1.18
E31 [12], 3000 nM | – | 0.648
E34 [7], 4.1 nM | 0.861 | –
E34 [7], 12.3 nM | 0.839 | –
E34 [7], 37 nM | 0.672 | –
E34 [7], 111.1 nM | 0.741 | –
E34 [7], 333.3 nM | 1.14 | –
E34 [7], 1000 nM | 2.31 | –
E34 [7], 3000 nM | 3.14 | –
E34 [14], 4.1 nM | – | 0.818
E34 [14], 12.3 nM | – | 0.897
E34 [14], 37 nM | – | 1
E34 [14], 111.1 nM | – | 0.845
E34 [14], 333.3 nM | – | 0.754
E34 [14], 1000 nM | – | 0.721
E34 [14], 3000 nM | – | 0.448
E57 [4], 4.1 nM | 0.958 | –
E57 [4], 12.3 nM | 0.865 | –
E57 [4], 37 nM | 1 | –
E57 [4], 111.1 nM | 1.03 | –
E57 [4], 333.3 nM | 2.28 | –
E57 [4], 1000 nM | 3.09 | –
E57 [4], 3000 nM | 6.18 | –
E57 [11], 4.1 nM | – | 0.988
E57 [11], 12.3 nM | – | 1.11
E57 [11], 37 nM | – | 0.949
E57 [11], 111.1 nM | – | 0.977
E57 [11], 333.3 nM | – | 0.908
E57 [11], 1000 nM | – | 0.776
E57 [11], 3000 nM | – | 0.396
FT3469 [3], 4.1 nM | 0.687 | –
FT3469 [3], 12.3 nM | 1.29 | –
FT3469 [3], 37 nM | 0.725 | –
FT3469 [3], 111.1 nM | 0.625 | –
FT3469 [3], 333.3 nM | 1.47 | –
FT3469 [3], 1000 nM | 1.56 | –
FT3469 [3], 3000 nM | 2.68 | –
FT3469 [10], 4.1 nM | – | 0.963
FT3469 [10], 12.3 nM | – | 0.887
FT3469 [10], 37 nM | – | 1.07
FT3469 [10], 111.1 nM | – | 0.895
FT3469 [10], 333.3 nM | – | 0.922
FT3469 [10], 1000 nM | – | 0.792
FT3469 [10], 3000 nM | – | 0.648
